Assay results as given in patent US10428044B2, “3-amino-1,5,6,7-tetrahydro-4H-indol-4-ones” (Bayer Pharma Aktiengesellschaft, priority 2014, dated 2019).

Target: (recombinant) catalytic domain of human Bub1 (amino acids 704-1085) (Homo sapiens (Human), UniProt O43683)
Assay: Bub1 kinase assay (TR-FRET)
Format: biochemical
Settings: ATP 10 μM final, peptide substrate 1 μM final, 60 min at 22° C., read-out: Biological Assay: Bub1 kinase assay median IC50
Method: Examples were tested in selected biological assays one or more times. When tested more than once, data are reported as either average values or as median values, wherein • the average value, also referred to as the arithmetic mean value, represents the sum of the values obtained divided by the number of times tested, and • the median value represents the middle number of the group of values when ranked in ascending or descending order. If the number of values in the data set is odd, the median is the middle value. If the number of values in the data set is even, the median is the arithmetic mean of the two middle values.
To this end, 100-fold concentrated compound solutions (in DMSO) were previously prepared by serial dilution (1:3.4) of 2 mM stocks in a clear low volume 384-well source microtiter plate (Greiner Bio-One, Frickenhausen, Germany), from which 50 nl of compounds were transferred into a black low volume test microtiter plate from the same supplier. […] The resulting mixture (5 μL final volume) was incubated at 22° C. during 60 min., and the reaction was stopped by the addition of 5 μL of an aqueous EDTA-solution (50 mM EDTA, in 100 mM HEPES pH 7.5 and 0.2% (w/v) bovine serum albumin) which also contained the TR-FRET detection reagents (0.2 μM streptavidin-XL665 [Cisbio Bioassays, Codolet, France] and 1 nM anti-phosho-Serine antibody [Merck Millipore, cat. #35-002] and 0.4 nM LANCE EU-W1024 labeled anti-mouse IgG antibody [Perkin-Elmer, product no. AD0077, alternatively a Terbium-cryptate-labeled anti-mouse IgG antibody from Cisbio Bioassays can be used]). The stopped reaction mixture was further incubated 1 h at 22° C. in order to allow the formation of complexes between peptides and detection reagents. Subsequently, the amount of product was evaluated by measurement of the resonance energy transfer from the Eu-chelate-antibody complex recognizing the Phosphoserine residue to the streptavidin-XL665 bound to the biotin moiety of the peptide. […] The data were normalised using two sets of control wells for high- (=enzyme reaction without inhibitor=0%=Minimum inhibition) and low- (=all assay components without enzyme=100%=Maximum inhibition) Bub1 activity. IC50 values were calculated by fitting the normalized inhibition data to a 4-parameter logistic equation (Minimum, Maximum, IC50, Hill; Y=Max+(Min−Max)/(1+(X/IC50)Hill)).

Sequence of (recombinant) catalytic domain of human Bub1 (amino acids 704-1085) (O43683 704-1085): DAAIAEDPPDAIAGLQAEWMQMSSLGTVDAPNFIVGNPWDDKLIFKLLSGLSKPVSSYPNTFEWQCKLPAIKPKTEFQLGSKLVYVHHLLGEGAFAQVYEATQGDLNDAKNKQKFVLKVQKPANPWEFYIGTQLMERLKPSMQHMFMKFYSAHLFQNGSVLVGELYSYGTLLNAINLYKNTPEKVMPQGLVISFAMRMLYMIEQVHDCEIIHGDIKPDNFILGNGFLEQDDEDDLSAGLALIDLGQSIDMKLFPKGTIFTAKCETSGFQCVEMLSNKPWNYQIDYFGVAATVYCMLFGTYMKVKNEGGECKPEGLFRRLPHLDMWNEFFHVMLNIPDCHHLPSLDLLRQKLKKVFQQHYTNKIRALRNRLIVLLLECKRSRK

| IC50 [nM] | Structure (SMILES) |
| --- | --- |
| 422 | COc1ccc(Nc2c(-c3ccncc3)[nH]c3c2C(=O)CC(C)(C)C3)cc1 [Example 59, 3-[(4-methoxyphenyl)amino]-6,6-dimethyl-2-(pyridin-4-yl)-1,5,6,7-tetrahydro-4H-indol-4-one] |
| 95.2 | CC1(C)CC(=O)c2c([nH]c(-c3ccncc3)c2Nc2ccccc2F)C1 [Example 60, 3-[(2-fluorophenyl)amino]-6,6-dimethyl-2-(pyridin-4-yl)-1,5,6,7-tetrahydro-4H-indol-4-one] |
| 68.5 | CC1(C)CC(=O)c2c([nH]c(-c3ccncc3)c2Nc2ccccc2Cl)C1 [Example 61, 3-[(2-chlorophenyl)amino]-6,6-dimethyl-2-(pyridin-4-yl)-1,5,6,7-tetrahydro-4H-indol-4-one] |
| 167 | COc1ccc(Nc2c(-c3ccncc3)[nH]c3c2C(=O)CC(C)(C)C3)c(OC)c1 [Example 62, 3-[(2,4-dimethoxyphenyl)amino]-6,6-dimethyl-2-(pyridin-4-yl)-1,5,6,7-tetrahydro-4H-indol-4-one] |
| 196 | CC1(C)CC(=O)c2c([nH]c(-c3ccncc3)c2Nc2cccnc2)C1 [Example 63, 6,6-dimethyl-2-(pyridin-4-yl)-3-(pyridin-3-ylamino)-1,5,6,7-tetrahydro-4H-indol-4-one] |
| 1820 | CC1(C)CC(=O)c2c([nH]c(-c3ccncc3)c2Nc2cncc3ccccc23)C1 [Example 64, 3-(isoquinolin-4-ylamino)-6,6-dimethyl-2-(pyridin-4-yl)-1,5,6,7-tetrahydro-4H-indol-4-one] |
| 525 | CC1(C)CC(=O)c2c([nH]c(-c3ccncc3)c2Nc2cccc(N)c2)C1 [Example 65, 3-[(3-aminophenyl)amino]-6,6-dimethyl-2-(pyridin-4-yl)-1,5,6,7-tetrahydro-4H-indol-4-one] |
| 2260 | CC1(C)CC(=O)c2c([nH]c(-c3ccncc3)c2Nc2cnc3ccccc3c2)C1 [Example 66, 6,6-dimethyl-2-(pyridin-4-yl)-3-(quinolin-3-ylamino)-1,5,6,7-tetrahydro-4H-indol-4-one] |
| 87.1 | CC1(C)CC(=O)c2c([nH]c(-c3ccncc3)c2Nc2ccc3occc3c2)C1 [Example 67, 3-(1-benzofuran-5-ylamino)-6,6-dimethyl-2-(pyridin-4-yl)-1,5,6,7-tetrahydro-4H-indol-4-one] |
| 84.2 | CC1(C)CC(=O)c2c([nH]c(-c3ccncc3)c2Nc2ccc3cc[nH]c3c2)C1 [Example 68, 3-(1H-indol-6-ylamino)-6,6-dimethyl-2-(pyridin-4-yl)-1,5,6,7-tetrahydro-4H-indol-4-one] |
| 76.4 | CC1(C)CC(=O)c2c([nH]c(-c3ccncc3)c2Nc2ccc3sccc3c2)C1 [Example 69, 3-(1-benzothiophen-5-ylamino)-6,6-dimethyl-2-(pyridin-4-yl)-1,5,6,7-tetrahydro-4H-indol-4-one] |
| 81.7 | CC1(C)CC(=O)c2c([nH]c(-c3ccncc3)c2Nc2ccc3[nH]ccc3c2)C1 [Example 70, 3-(1H-indol-5-ylamino)-6,6-dimethyl-2-(pyridin-4-yl)-1,5,6,7-tetrahydro-4H-indol-4-one] |
| 49.7 | CC1(C)CC(=O)c2c([nH]c(-c3ccncc3)c2Nc2ccccc2Br)C1 [Example 71, 3-[(2-bromophenyl)amino]-6,6-dimethyl-2-(pyridin-4-yl)-1,5,6,7-tetrahydro-4H-indol-4-one] |
| 47.1 | CC1(C)CC(=O)c2c([nH]c(-c3ccncc3)c2Nc2ccc(Br)cc2)C1 [Example 72, 3-[(4-bromophenyl)amino]-6,6-dimethyl-2-(pyridin-4-yl)-1,5,6,7-tetrahydro-4H-indol-4-one] |
| 19900 | CC1(C)CC(=O)c2c([nH]c(-c3ccncc3)c2Nc2ccc3nc[nH]c3c2)C1 [Example 73, 3-(1H-benzimidazol-6-ylamino)-6,6-dimethyl-2-(pyridin-4-yl)-1,5,6,7-tetrahydro-4H-indol-4-one] |

The remaining lines, values behind:

| Structure (SMILES) | IC50 [nM] |
| --- | --- |
| CC(=O)Nc1cc(-c2[nH]c3c(c2Nc2cccc(F)c2)C(=O)CCC3)ccn1 [Example 40, N-(4-{3-[(3-fluorophenyl)amino]-4-oxo-4,5,6,7-tetrahydro-1H-indol-2-yl}pyridin-2-yl)acetamide] | 15.2 |
| O=C1CCCc2[nH]c(-c3ccncc3)c(Nc3cccc(F)c3)c21 [Example 41, 3-[(3-fluorophenyl)amino]-2-(pyridin-4-yl)-1,5,6,7-tetrahydro-4H-indol-4-one] | 11.1 |
| O=C1CCCc2[nH]c(-c3ccncc3)c(Nc3ccc(F)cc3)c21 [Example 42, 3-[(4-fluorophenyl)amino]-2-(pyridin-4-yl)-1,5,6,7-tetrahydro-4H-indol-4-one] | 23 |
| O=C1CC(C(F)(F)F)Cc2[nH]c(-c3ccncc3)c(Nc3cccc(F)c3)c21 (stereo not drawn) [Example 43, 3-[(3-fluorophenyl)amino]-2-(pyridin-4-yl)-6-(trifluoromethyl)-1,5,6,7-tetrahydro-4H-indol-4-one] | 9.6 |
| O=C1CCCc2[nH]c(-c3ccnc(F)c3)c(Nc3ccccc3)c21 [Example 44, 2-(2-fluoropyridin-4-yl)-3-(phenylamino)-1,5,6,7-tetrahydro-4H-indol-4-one] | 17 |
| CC1(C)CC(=O)c2c([nH]c(-c3ccncc3)c2Nc2cccc(-c3ccccc3)c2)C1 [Example 45, 3-(biphenyl-3-ylamino)-6,6-dimethyl-2-(pyridin-4-yl)-1,5,6,7-tetrahydro-4H-indol-4-one] | 20.8 |
| CC1(C)CC(=O)c2c([nH]c(-c3ccnc(C#N)c3)c2Nc2ccccc2)C1 [Example 46, 4-[6,6-dimethyl-4-oxo-3-(phenylamino)-4,5,6,7-tetrahydro-1H-indol-2-yl]pyridine-2-carbonitrile] | 29.1 |
| O=C1CCCc2[nH]c(-c3ccnc(NC(=O)C4CC4)c3)c(Nc3cccc(F)c3)c21 [Example 47, N-(4-{3-[(3-fluorophenyl)amino]-4-oxo-4,5,6,7-tetrahydro-1H-indol-2-yl}pyridin-2-yl)cyclopropanecarboxamide] | 13.7 |
| O=C1CCCc2[nH]c(-c3ccnc(NC(=O)C4CC4)c3)c(Nc3ccccc3)c21 [Example 48, N-{4-[4-oxo-3-(phenylamino)-4,5,6,7-tetrahydro-1H-indol-2-yl]pyridin-2-yl}cyclopropanecarboxamide] | 13.5 |
| CC(C)C1CC(=O)c2c([nH]c(-c3ccnc(N)c3)c2Nc2ccccc2)C1 (stereo not drawn) [Example 49, 2-(2-aminopyridin-4-yl)-3-(phenylamino)-6-(propan-2-yl)-1,5,6,7-tetrahydro-4H-indol-4-one] | 13.1 |
| CC(C)C1CC(=O)c2c([nH]c(-c3ccnc(N)c3)c2Nc2cccc(F)c2)C1 (stereo not drawn) [Example 50, 2-(2-aminopyridin-4-yl)-3-[(3-fluorophenyl)amino]-6-(propan-2-yl)-1,5,6,7-tetrahydro-4H-indol-4-one] | 36.3 |
| CC1(C)CC(=O)c2c([nH]c(-c3ccncc3)c2Nc2cccc(C(F)(F)F)c2)C1 [Example 51, 6,6-dimethyl-2-(pyridin-4-yl)-3-{[3-(trifluoromethyl)phenyl]amino}-1,5,6,7-tetrahydro-4H-indol-4-one] | 136 |
| COc1cccc(Nc2c(-c3ccncc3)[nH]c3c2C(=O)CC(C)(C)C3)c1 [Example 52, 3-[(3-methoxyphenyl)amino]-6,6-dimethyl-2-(pyridin-4-yl)-1,5,6,7-tetrahydro-4H-indol-4-one] | 99.8 |
| Cc1ccccc1Nc1c(-c2ccncc2)[nH]c2c1C(=O)CC(C)(C)C2 [Example 53, 6,6-dimethyl-3-[(2-methylphenyl)amino]-2-(pyridin-4-yl)-1,5,6,7-tetrahydro-4H-indol-4-one] | 82.2 |
| Cc1ccc(Nc2c(-c3ccncc3)[nH]c3c2C(=O)CC(C)(C)C3)cc1 [Example 54, 6,6-dimethyl-3-[(4-methylphenyl)amino]-2-(pyridin-4-yl)-1,5,6,7-tetrahydro-4H-indol-4-one] | 148 |
| CC1(C)CC(=O)c2c([nH]c(-c3ccnnc3)c2Nc2ccccc2)C1 [Example 55, 6,6-dimethyl-3-(phenylamino)-2-(pyridazin-4-yl)-1,5,6,7-tetrahydro-4H-indol-4-one] | 449 |
| COc1cccc(Nc2c(-c3ccncc3)[nH]c3c2C(=O)CC(C)(C)C3)c1OC [Example 56, 3-[(2,3-dimethoxyphenyl)amino]-6,6-dimethyl-2-(pyridin-4-yl)-1,5,6,7-tetrahydro-4H-indol-4-one] | 654 |
| COc1ccc(Nc2c(-c3ccncc3)[nH]c3c2C(=O)CC(C)(C)C3)cc1OC [Example 58, 3-[(3,4-dimethoxyphenyl)amino]-6,6-dimethyl-2-(pyridin-4-yl)-1,5,6,7-tetrahydro-4H-indol-4-one] | 20000 |
